Experiments:
[1] = target: T1, HiBit-KRAS^G12C (Homo sapiens, UniProt P01116, G12C); assay: HiBit degradation assay in SW1573 HiBit-KRas^G12C cells; assay type: cell-based; design: expressed in transfected cells; host or cells: SW1573 (clone E6), modified pcDNA3.1 vector, TK promoter; conditions: 24 hours
In short: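 HiBit-KRAS G12C degradation was measured after a 24 h compound exposure (titrated 10 μM–20 nM) in engineered SW1573 cells. Lytic HiBit luminescence, expressed relative to DMSO controls, yielded DC50 and Dmax from 4-parameter fits. Concentrations causing ≥50% loss in alamar blue viability were omitted as cytotoxic.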

[2] = target: T1, HiBit-KRAS^G12C; assay: HiBit degradation assay in MiaPaCa-2 HiBit-KRas^G12C cells; assay type: cell-based; conditions: 24 hours
In short: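 DC50 and Dmax come from 4-parameter fits of DMSO-normalized HiBit luminescence after 24 hours' exposure at 37° C to 10 μM–20 nM compound in 0.1% or 0.5% DMSO. Cells: MiaPaCa-2 carrying one endogenously HiBit-tagged KRAS^G12C allele; concentrations causing ≥50% […] viability loss (alamar blue) excluded.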

[3] = SW1573, SW1573 HiBit-KRas^G12C, 0.1% DMSO, read-out: KRas^G12C-HiBit (SW1573; 0.1% DMSO) Dmax**
[4] = SW1573, SW1573 HiBit-KRas^G12C, 0.5% DMSO, read-out: KRas^G12C-HiBiT (SW1573; 0.5% DMSO) Dmax**
[5] = SW1573 HiBit-KRas^G12C, 0.1% DMSO, read-out: KRas^G12C-HIBit (SW1573; 0.1% DMSO) DC50*
[6] = MIA PaCa-2, MiaPaCa-2 HiBit-KRas^G12C cells, 0.5% DMSO, maximum degradation, read-out: KRas^G12C-HiBiT (MiaPaCa; 0.5% DMSO) DMax
[7] = read-out: KRas^G12C-HiBiT (MiaPaCa; 0.1% DMSO) IC50, MiaPaCa-2 HiBit-KRas^G12C cells, 0.1% DMSO
[8] = read-out: KRas^G12C-HiBiT (SW1573; 0.5% DMSO) IC50***, SW1573 HiBit-KRas^G12C, 0.5% DMSO
[9] = read-out: KRas^G12C-HiBiT (MiaPaCa; 0.5% DMSO) IC50, MiaPaCa-2 HiBit-KRas^G12C cells, 0.5% DMSO

T1 sequence (P01116 1-186 isoform P01116-2 G12C limits assumed): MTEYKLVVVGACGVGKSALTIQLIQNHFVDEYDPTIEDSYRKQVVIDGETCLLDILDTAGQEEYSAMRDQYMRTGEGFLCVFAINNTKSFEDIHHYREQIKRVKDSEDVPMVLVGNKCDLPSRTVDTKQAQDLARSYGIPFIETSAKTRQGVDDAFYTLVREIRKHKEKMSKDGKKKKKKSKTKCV

Row | Compound | Dmax [1, 3] [%] | Dmax [1, 4] [%] | DC50 [1, 5] [nM] | Dmax [2, 6] [%] | DC50 [1, 8] [nM] | DC50 [2, 9] [nM] | further results
1 | C=CC(=O)N1CCN(c2nc(OCCN3CCC(OCCOCCOCC(=O)N[C@H](C(=O)N4C[C@H](O)C[C@H]4C(=O)N[C@@H](C)c4ccc(-c5scnc5C)cc4)C(C)(C)C)CC3)nc3c(F)c(-c4cc(O)cc5ccccc45)c(Cl)cc23)CC1 [Compound 60, (2S,4R)-1-[(2S)-2-{2-[2-(2-{[1-(2-{[6-chloro-8-fluoro-7-(3-hydroxynaphthalen-1-yl)-4-[4-(prop-2-enoyl)piperazin-1-yl]quinazolin-2-yl]oxy}ethyl)piperidin-4-yl]oxy}ethoxy)ethoxy]acetamido}-3,3-dimethylbutanoyl]-4-hydroxy-N-[(1S)-1-[4-(4-methyl-1,3-thiazol-5-yl)phenyl]ethyl]pyrrolidine-2-carboxamide] | < 35 | 35 to 70 | 100 to 1000 | < 35 |  |  | DC50 [2, 7]: > 1000 nM
2 | C=CC(=O)N1CCN(c2nc(OCCN3CCC(OCCOc4cc([C@@H](C(=O)N5C[C@H](O)C[C@H]5C(=O)N[C@@H](C)c5ccc(-c6scnc6C)cc5)C(C)C)on4)CC3)nc3c(F)c(-c4cc(O)cc5ccccc45)c(Cl)cc23)C[C@@H]1CC#N [Compound 22, (2S,4R)-1-[(2S)-2-{3-[2-({1-[2-({6-chloro-4-[(3S)-3-(cyanomethyl)-4-(prop-2-enoyl)piperazin-1-yl]-8-fluoro-7-(3-hydroxynaphthalen-1-yl)quinazolin-2-yl}oxy)ethyl]piperidin-4-yl}oxy)ethoxy]-1,2-oxazol-5-yl}-3-methylbutanoyl]-4-hydroxy-N-[(1S)-1-[4-(4-methyl-1,3-thiazol-5-yl)phenyl]ethyl]pyrrolidine-2-carboxamide] | < 35 |  | 100 to 1000 |  |  |  | Dmax ([2]; MIA PaCa-2, MiaPaCa-2 HiBit-KRas^G12C cells, 0.1% DMSO, maximum degradation, read-out: KRas^G12C-HiBiT (MiaPaCa; 0.1% DMSO) DMax): < 35%
3 | C=C(F)C(=O)N1CCN(c2nc(O[C@H](C)CN3CCC(COc4cc([C@H](C(=O)N5C[C@H](O)C[C@H]5C(=O)N[C@@H](C)c5ccc(-c6scnc6C)cc5)C(C)C)on4)CC3)nc3c(F)c(-c4cc(O)cc5ccccc45)c(Cl)cc23)C[C@@H]1CC#N [Compound 155, (2S,4R)-1-[(2R)-2-[3-({1-[(2R)-2-({6-chloro-4-[(3S)-3-(cyanomethyl)-4-(2-fluoroprop-2-enoyl)piperazin-1-yl]-8-fluoro-7-(3-hydroxynaphthalen-1-yl)quinazolin-2-yl}oxy)propyl]piperidin-4-yl}methoxy)-1,2-oxazol-5-yl]-3-methylbutanoyl]-4-hydroxy-N-[(1S)-1-[4-(4-methyl-1,3-thiazol-5-yl)phenyl]ethyl]pyrrolidine-2-carboxamide] |  | < 35 |  | < 35 | 100 to 1000 | 100 to 1000 | 
4 | C=C(F)C(=O)N1CCN(c2nc(OCCN3CCC(COc4cc([C@H](C(=O)N5C[C@H](O)C[C@H]5C(=O)N[C@@H](C)c5ccc(-c6scnc6C)cc5)C(C)C)on4)CC3)nc3c(F)c(-c4cc(O)cc5ccccc45)c(Cl)cc23)C[C@@H]1CC#N [Compound 168, (2S,4R)-1-[(2R)-2-[3-({1-[2-({6-chloro-4-[(3S)-3-(cyanomethyl)-4-(2-fluoroprop-2-enoyl)piperazin-1-yl]-8-fluoro-7-(3-hydroxynaphthalen-1-yl)quinazolin-2-yl}oxy)ethyl]piperidin-4-yl}methoxy)-1,2-oxazol-5-yl]-3-methylbutanoyl]-4-hydroxy-N-[(1S)-1-[4-(4-methyl-1,3-thiazol-5-yl)phenyl]ethyl]pyrrolidine-2-carboxamide] |  |  |  |  | 100 to 1000 | 100 to 1000 | KRas^G12C-HiBiT (SW1573; 0.5% DMSO) Dmax** ([1]; SW1573 HiBit-KRas^G12C, 0.5% DMSO): A (A ≥ 70); KRas^G12C-HiBiT (MiaPaCa; 0.5% DMSO) DMax ([2]; MiaPaCa-2 HiBit-KRas^G12C cells, 0.5% DMSO, maximum degradation): A (A ≥ 70)
5 | C=CC(=O)N1CCN(c2nc(OC[C@@H]3C[C@@H](OCCOc4cc(-c5scnc5C)ccc4CNC(=O)[C@@H]4C[C@@H](O)CN4C(=O)[C@H](c4cc(C)no4)C(C)C)CN3C)nc3c2CCN(c2cccc4ccccc24)C3)C[C@@H]1CC#N [Compound 89, (2S,4R)-N-{[2-(2-{[(3R,5S)-5-[({4-[(3S)-3-(cyanomethyl)-4-(prop-2-enoyl)piperazin-1-yl]-7-(naphthalen-1-yl)-5H,6H,7H,8H-pyrido[3,4-d]pyrimidin-2-yl}oxy)methyl]-1-methylpyrrolidin-3-yl]oxy}ethoxy)-4-(4-methyl-1,3-thiazol-5-yl)phenyl]methyl}-4-hydroxy-1-[(2S)-3-methyl-2-(3-methyl-1,2-oxazol-5-yl)butanoyl]pyrrolidine-2-carboxamide] | 35 to 70 |  | 100 to 1000 |  | > 1000 | > 1000 | DC50 [2, 7]: > 1000 nM
6 | Cc1ncsc1-c1ccc([C@H](C)NC(=O)[C@@H]2C[C@@H](O)CN2C(=O)[C@@H](NC(=O)COCC2CCN(CCOc3nc(N4CCN(C(=O)/C=C/CN(C)C)[C@@H](CC#N)C4)c4cc(Cl)c(-c5cc(O)cc6ccccc56)c(F)c4n3)CC2)C(C)(C)C)cc1 [Compound 165, (2S,4R)-1-[(2S)-2-[2-({1-[2-({6-chloro-4-[(3S)-3-(cyanomethyl)-4-[(2E)-4-(dimethylamino)but-2-enoyl]piperazin-1-yl]-8-fluoro-7-(3-hydroxynaphthalen-1-yl)quinazolin-2-yl}oxy)ethyl]piperidin-4-yl}methoxy)acetamido]-3,3-dimethylbutanoyl]-4-hydroxy-N-[(1S)-1-[4-(4-methyl-1,3-thiazol-5-yl)phenyl]ethyl]pyrrolidine-2-carboxamide] |  | 35 to 70 |  | 35 to 70 | 100 to 1000 | > 1000 | 
7 | C=C(F)C(=O)N1CCN(c2nc(OCCN3CCC(C)(COc4cc([C@H](C(=O)N5C[C@H](O)C[C@H]5C(=O)N[C@@H](C)c5ccc(-c6scnc6C)cc5)C(C)C)on4)CC3)nc3c(F)c(-c4cc(O)cc5ccccc45)c(Cl)cc23)C[C@@H]1CC#N (atropisomer, axis not shown) [Compound 123, (2S,4R)-1-[(2R)-2-[3-({1-[2-({6-chloro-4-[(3S)-3-(cyanomethyl)-4-(2-fluoroprop-2-enoyl)piperazin-1-yl]-8-fluoro-7-(3-hydroxynaphthalen-1-yl)quinazolin-2-yl}oxy)ethyl]-4-methylpiperidin-4-yl}methoxy)-1,2-oxazol-5-yl]-3-methylbutanoyl]-4-hydroxy-N-[(1S)-1-[4-(4-methyl-1,3-thiazol-5-yl)phenyl]ethyl]pyrrolidine-2-carboxamide] |  | > 70 |  | > 70 | < 100 | < 100 | 
8 | C=CC(=O)N1CCN(c2nc(O[C@H]3CCC[C@@H]3N3CCC(COCC(=O)N[C@H](C(=O)N4C[C@H](O)C[C@H]4C(=O)N[C@@H](C)c4ccc(-c5scnc5C)cc4)C(C)(C)C)CC3)nc3c(F)c(-c4cc(O)cc5ccccc45)c(Cl)cc23)CC1 [Compound 12, (2S,4R)-1-[(2S)-2-[2-({1-[(1S,2S)-2-{[6-chloro-8-fluoro-7-(3-hydroxynaphthalen-1-yl)-4-[4-(prop-2-enoyl)piperazin-1-yl]quinazolin-2-yl]oxy}cyclopentyl]piperidin-4-yl}methoxy)acetamido]-3,3-dimethylbutanoyl]-4-hydroxy-N-[(1S)-1-[4-(4-methyl-1,3-thiazol-5-yl)phenyl]ethyl]pyrrolidine-2-carboxamide] |  |  | 100 to 1000 |  |  |  | Dmax ([1]; SW1573, read-out: KRas^G12C-HiBiT (SW1573; 0.5% DMSO) Dmax**, SW1573 HiBit-KRas^G12C, 0.5% DMSO): 35 to 70%; Dmax ([1]; SW1573, read-out: KRas^G12C-HiBit (SW1573; 0.1% DMSO) Dmax**, SW1573 HiBit-KRas^G12C, 0.1% DMSO): 35 to 70%; Dmax ([2]; MIA PaCa-2, read-out: KRas^G12C-HiBiT (MiaPaCa; 0.1% DMSO) DMax, MiaPaCa-2 HiBit-KRas^G12C cells, 0.1% DMSO, maximum degradation): < 35%; Dmax ([2]; MIA PaCa-2, read-out: KRas^G12C-HiBiT (MiaPaCa; 0.5% DMSO) DMax, MiaPaCa-2 HiBit-KRas^G12C cells, 0.5% DMSO, maximum degradation): < 35%

Source: patent US20220370416A1, “COMPOUNDS AND METHODS FOR TARGETED DEGRADATION OF KRAS” (Arvinas Operations, Inc., priority 2020, published 2022)
